These results are taken from ChEMBL document CHEMBL1201862, “PubChem BioAssay data set” (2004).

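Exposure lasted 48 hours, with cells grown in 96-well plates and compounds tested at five concentrations. GI50 is the concentration that inhibits growth by half.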 Calls of active or inactive are those of the source. Cut-off read from the data, not from the text of the source: active = GI50 up to about 1.1 µM and inactive = higher.

Some test systems named below: A549; ACHN; CCRF-CEM; HCC 2998; HCT-116; HT-29; K562; SF-295; SF-539; SNB-19; U-251; UACC-257; UACC-62; UO-31; SF-268.
Holding throughout (test): growth of human tumour cells (NCI), 48 h

Turning to `Clc1ccc(C[P+]2(c3ccccc3)CCCCC2)cc1.[O-][Cl+3]([O-])([O-])[O-]`, the GI50 is > 100 µM (inactive) in the assay on A549; > 100 µM (inactive) in the assay with ACHN; 75.9 µM (inactive) in the assay on CCRF-CEM; 43.6 µM (inactive) with HCC 2998; 60.1 µM (inactive) with HCT-116; 32 µM (inactive) in the assay on HT-29. The GI50 in the assay on K562 is 78.2 µM (inactive); in the assay on SF-295, > 100 µM (inactive); in the assay on SF-539, > 100 µM (inactive); with SNB-19 it was 66.8 µM (inactive); in the assay with U-251, 45.5 µM (inactive); with UACC-257, 28.2 µM (inactive). The GI50 with UACC-62 is 37.2 µM (inactive); in the assay with UO-31, > 100 µM (inactive).
With `O=C1N(c2ccccc2)C2(O)C(=O)c3ccccc3C2(O)N1c1ccccc1` (configuration not stated), the GI50 in the assay with A549, with ACHN, in the assay on CCRF-CEM, in the assay with HCC 2998, with HCT-116 and in the assay on HT-29 was > 100 µM (inactive) in each case. For the same compound, the GI50 in the assay on K562, in the assay on SF-268, in the assay on SF-295, with SF-539, in the assay with SNB-19 and in the assay on U-251 was > 100 µM (inactive) in each case. The GI50 with UACC-257, in the assay with UACC-62 and with UO-31 was > 100 µM (inactive) each time.
For the compound `CC1=C(C(=O)Nc2cc(=O)n(C)c(=O)n2C)C(c2ccc([N+](=O)[O-])cc2)C(C(=O)Nc2cc(=O)n(C)c(=O)n2C)=C(C)N1`, the GI50 in the assay with A549 was > 100 µM (inactive); in the assay on ACHN, 68.2 µM (inactive); in the assay on CCRF-CEM it was > 100 µM (inactive); in the assay with HCC 2998 it was 94.8 µM (inactive); in the assay with HCT-116 it was 74.3 µM (inactive); in the assay on HT-29 it was > 100 µM (inactive). For the same compound, the GI50 is 75.5 µM (inactive) in the assay on K562; > 100 µM (inactive) in the assay with SF-268; > 100 µM (inactive) in the assay on SF-295; > 100 µM (inactive) in the assay on SF-539; > 100 µM (inactive) in the assay on SNB-19; > 100 µM (inactive) with U-251. Further, the figures for the GI50 in the assay on UACC-257, in the assay on UACC-62 and in the assay with UO-31 were 86.7 µM (inactive), 26.5 µM (inactive) and 21.8 µM (inactive), respectively.
On to `CCC1CC2C(=O)N(c3ccccc3)C(=O)C2c2[nH]c3ccccc3c21` (configuration not stated), for which the GI50 with A549 is 24.6 µM (inactive); with ACHN, 20.2 µM (inactive); in the assay with CCRF-CEM, 26.9 µM (inactive); in the assay with HCC 2998, 29.3 µM (inactive); in the assay on HT-29, 22.2 µM (inactive); with K562, 25.4 µM (inactive). Besides, the GI50 in the assay on SF-268 is 24.5 µM (inactive); with SF-295, 7.19 µM (inactive); in the assay on SNB-19, 22.9 µM (inactive); with U-251 it was 28.5 µM (inactive); in the assay with UACC-62 it was 19.5 µM (inactive); with UO-31, 31.6 µM (inactive).
Turning to `CCc1ccc(Cc2ccc(CC)c(NC(=O)C(=O)C3NC(=S)NC3=O)c2CC)c(CC)c1NC(=O)C(=O)C1NC(=S)NC1=O` (configuration not stated), the GI50 in the assay on A549, in the assay with ACHN, in the assay with CCRF-CEM, in the assay on HCC 2998, with HCT-116 and in the assay on K562 was > 100 µM (inactive) in each case. Further, the GI50 in the assay on SF-268, in the assay on SF-539, in the assay on SNB-19, in the assay on U-251, in the assay on UACC-257 and in the assay on UACC-62 was > 100 µM (inactive) each time. Further, in the assay on UO-31, the GI50 is 51.8 µM (inactive).
In the case of `COC(=O)C1=CNC(C(=O)OC)=NN1`, the GI50 in the assay on A549, with ACHN, in the assay on CCRF-CEM, with HCT-116, in the assay on HT-29 and in the assay on K562 was > 100 µM (inactive) throughout. In addition, the GI50 in the assay on SF-268, in the assay on SF-295, in the assay on SF-539, with SNB-19, in the assay on U-251 and in the assay with UACC-257 was > 100 µM (inactive) throughout. The GI50 with UACC-62 and in the assay with UO-31 was > 100 µM (inactive) each time.
Take `Nc1ccccc1SC(/C=C/NNC1=NN=C(c2ccccc2)C(c2ccccc2)N1)c1ccccc1` (configuration not stated): the GI50 in the assay on A549 was 15.2 µM (inactive); with ACHN it was 14.9 µM (inactive); with CCRF-CEM, 2.59 µM (inactive); in the assay on HCC 2998 it was 16.5 µM (inactive); with HT-29, 17.1 µM (inactive); in the assay on K562, 9.25 µM (inactive). Moreover, the GI50 in the assay with SF-268 was 5.64 µM (inactive); in the assay on SF-295 it was 12.1 µM (inactive); in the assay with SF-539, 13.2 µM (inactive); in the assay with SNB-19, 18.7 µM (inactive); with U-251 it was 15 µM (inactive); in the assay with UACC-257 it was 13.5 µM (inactive). The GI50 is 10.6 µM (inactive) in the assay on UACC-62 and 4.45 µM (inactive) with UO-31.
As for `CCCc1c[nH]c(-c2ccc(-c3cc(CCC)c(C=O)[nH]3)s2)c1`, the GI50 was 5.83 µM (inactive) in the assay with A549; 19.2 µM (inactive) in the assay with ACHN; 21.8 µM (inactive) with CCRF-CEM; 18 µM (inactive) with HCT-116; 5.38 µM (inactive) with HT-29; 12.4 µM (inactive) in the assay on K562. The GI50 in the assay on SF-268 was 18.3 µM (inactive); with SF-295, 18.9 µM (inactive); in the assay on SF-539 it was 18.7 µM (inactive); with SNB-19, 22 µM (inactive); in the assay on U-251, 15.6 µM (inactive); with UACC-257 it was 17.3 µM (inactive). The GI50 was 16.9 µM (inactive) with UACC-62 and 0.0165 µM (active) in the assay with UO-31.
On to `CC(=O)CC(=O)Nc1ccccc1C(F)(F)F`, for which the GI50 in the assay on A549, in the assay on ACHN, with CCRF-CEM, in the assay with HCC 2998, in the assay with HCT-116 and in the assay on K562 was > 100 µM (inactive) in each case. The GI50 in the assay on SF-268, with SF-539, with SNB-19, in the assay with U-251, with UACC-62 and in the assay with UO-31 was > 100 µM (inactive) each time.
In the case of `O=C1c2ccccc2S[C@@H](O)[C@@H]2CCCN12`, the GI50 with A549, with ACHN, in the assay with CCRF-CEM, with HCC 2998, in the assay on HCT-116 and in the assay on K562 was > 100 µM (inactive) each time. For the same compound, the GI50 in the assay on SF-268, in the assay with SF-295, with SF-539, with SNB-19, with U-251 and in the assay with UACC-257 was > 100 µM (inactive) in each case. Further, the GI50 is 47.9 µM (inactive) in the assay on UACC-62 and > 100 µM (inactive) in the assay with UO-31.
